What was measured:
[1] = tested on: barnyardgrass (Echinochloa crus-galli); experiment: Test C pre-/postemergence: barnyardgrass; assay type: in vivo; conditions: Preemergence, 250 g ai/ha; scale 0 to 100, 0 no effect, 100 complete control
From the text: (§1) Seeds of plant species selected from blackgrass (Alopecurus myosuroides), bromegrass, downy (downy bromegrass, Bromus tectorum), foxtail, green (green foxtail, Setaria viridis), ryegrass, Italian (Italian ryegrass, Lolium multiflorum), winter wheat (Triticum aestivum), wild oat (Avena fatua), galium (catchweed bedstraw, Galium aparine), bermudagrass (Cynodon dactylon), surinam grass (Brachiaria decumbens), cocklebur (common cocklebur, Xanthium strumarium), corn (Zea mays), large crabgrass (Digitaria sanguinalis), woolly cupgrass (Eriochloa villosa), foxtail, giant (giant foxtail, Setaria faberii), goosegrass (Eleusine indica), johnsongrass (Sorghum halepense), kochia (Kochia scoparia), lambsquarters (Chenopodium album), morningglory (Ipomoea coccinea), nightshade (eastern black nightshade, Solanum ptycanthum), nutsedge, yellow (yellow nutsedge, Cyperus esculentus), pigweed (Amaranthus retroflexus), ragweed (common ragweed, Ambrosia elation), soybean (Glycine max), common (oilseed) sunflower (Helianthus annuus), Russian thistle (Salsola kali) and velvetleaf (Abutilon theophrasti) were planted into a blend of loam soil and sand and treated preemergence with test chemicals formulated in a non-phytotoxic solvent mixture which included a surfactant.
(§2) At the same time, plants selected from these crop and weed species and also barley (winter barley, Hordeum vulgare), canarygrass (Phalaris minor), chickweed (common chickweed, Stellaria media) windgrass (Apera spica-venti) and deadnettle (henbit deadnettle, Lamium amplexicaule) were planted in pots containing Redi-Earth® planting medium (Scotts Company, 14111 Scottslawn Road, Marysville, Ohio 43041) comprising spaghnum peat moss, vermiculite, wetting agent and starter nutrients and treated with postemergence applications of test chemicals formulated in the same manner. Plants ranged in height from 2 to 18 cm (1- to 4-leaf stage) for postemergence treatments.
(§3) Treated plants and controls were maintained in a greenhouse for 13 to 15 days, after which time all species were compared to controls and visually evaluated. Plant response ratings, summarized in Table C, are based on a scale of 0 to 100 where 0 is no effect and 100 is complete control. A dash (-) response means no test result.

Barnyardgrass [2] = experiment: Test C preemergence: barnyardgrass; assay type: in vivo, Echinochloa crus-galli
From the text: as §1, §3

Oilseed Rape [3] = experiment: Test C preemergence: oilseed rape; assay type: in vivo; conditions: scale of 0 to 100, 0 is no effect, 100 is complete control
From the text: as §1, §3

Waterhemp = experiment: Test C pre-/postemergence: waterhemp; assay type: in vivo; conditions: Preemergence, 250 g ai/ha; scale 0 to 100, 0 no effect, 100 complete control
From the text: as §1, §2, §3

Barnyardgrass [4] = experiment: Test C postemergence: barnyardgrass; assay type: in vivo, Echinochloa crus-galli
From the text: as §2, §3

Barnyardgrass [5] = experiment: Test C postemergence: barnyardgrass; assay type: in vivo, Echinochloa crus-galli; conditions: 125 g ai/ha, scale 0 to 100, 0 no effect, 100 complete control
From the text: as §1, §2, §3

Oilseed Rape [6] = experiment: Test C postemergence: oilseed rape; assay type: in vivo
From the text: as §2, §3

Oilseed Rape [7] = experiment: Test C postemergence: oilseed rape; assay type: in vivo, Brassica napus; conditions: 125 g ai/ha, scale 0 to 100, 0 no effect, 100 complete control
From the text: as §1, §2, §3

[8] = tested on: bromegrass, downy (downy bromegrass, Bromus tectorum); experiment: Test C pre-/postemergence: bromegrass, downy; assay type: in vivo
In short: (§4)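 Visual injury scored 0–100 (100 = complete control) against untreated controls after 13–15 greenhouse days. Surfactant-containing solvent formulations applied either to soil after sowing (loam/sand) or over 1- to 4-leaf plants, 2–18 cm tall.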

[9] = tested on: foxtail, green (green foxtail, Setaria viridis); experiment: Test C pre-/postemergence: foxtail, green; assay type: in vivo
In short: as §4

[10] = tested on: bermudagrass (Cynodon dactylon); experiment: Test C pre-/postemergence: bermudagrass; assay type: in vivo
In short: as §4

[11] = tested on: surinam grass (Brachiaria decumbens); experiment: Test C pre-/postemergence: surinam grass; assay type: in vivo
In short: as §4

[12] = tested on: cocklebur (common cocklebur, Xanthium strumarium); experiment: Test C pre-/postemergence: cocklebur; assay type: in vivo
In short: as §4

[13] = tested on: woolly cupgrass (Eriochloa villosa); experiment: Test C pre-/postemergence: woolly cupgrass; assay type: in vivo
In short: as §4

[14] = tested on: goosegrass (Eleusine indica); experiment: Test C pre-/postemergence: goosegrass; assay type: in vivo
In short: as §4

[15] = tested on: common (oilseed) sunflower (Helianthus annuus); experiment: Test C pre-/postemergence: sunflower; assay type: in vivo; conditions: Preemergence
In short: as §4

[16] = tested on: barley (winter barley, Hordeum vulgare); experiment: Test C postemergence: barley; assay type: in vivo
In short: (§5)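 Visual ratings of 0 (no effect) to 100 (complete control) were made against controls 13-15 days after a postemergence spray, with plants kept in a greenhouse. Plants were 2-18 cm tall (1- to 4-leaf stage) in Redi-Earth peat/vermiculite medium at treatment.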

[17] = tested on: windgrass (Apera spica-venti); experiment: Test C postemergence: windgrass; assay type: in vivo
In short: as §5

[18] = 62 g ai/ha, scale of 0 to 100, 0 is no effect, 100 is complete control
[19] = 125 g ai/ha, scale 0 to 100, 0 no effect, 100 complete control
[20] = 31 g ai/ha, scale 0 to 100 (0 no effect, 100 complete control)
[21] = 62 g ai/ha, scale 0 to 100 (0 no effect, 100 complete control)
[22] = 31 g ai/ha, scale 0 (no effect) to 100 (complete control)
[23] = Postemergence, 31 g ai/ha, scale 0 to 100 (0 no effect, 100 complete control)
[24] = Postemergence, 62 g ai/ha, scale 0 to 100 (0 no effect, 100 complete control)
[25] = Postemergence, 125 g ai/ha, scale 0 to 100, 0 no effect, 100 complete control
[26] = Postemergence, 250 g ai/ha, scale 0 to 100
[27] = Preemergence, 31 g ai/ha, scale 0 (no effect) to 100 (complete control)
[28] = Preemergence, 62 g ai/ha, scale 0 to 100, 0 no effect, 100 complete control
[29] = Preemergence, 125 g ai/ha, scale 0 to 100, 0 no effect, 100 complete control
[30] = Preemergence, 250 g ai/ha, scale 0 to 100, 0 no effect, 100 complete control
[31] = Postemergence, 250 g ai/ha, scale 0 to 100 (0 no effect, 100 complete control)

CCOCc1nn(-c2ccc(F)cc2)nc1Oc1ccnc(C(F)(F)F)c1 [Compound 163]
Plant response rating, Barnyardgrass [1]: 100 | Plant response rating, Barnyardgrass (Barnyardgrass [2]; 31 g ai/ha, scale of 0 to 100, 0 is no effect, 100 is complete control): 10 | Plant response rating, Barnyardgrass (Barnyardgrass [2]; [18]): 25 | Plant response rating, Barnyardgrass (Barnyardgrass [2]; [19]): 75 | Plant response rating, Oilseed Rape (Oilseed Rape [3]; 31 g ai/ha): 0 | Plant response rating, Oilseed Rape (Oilseed Rape [3]; 62 g ai/ha): 50 | Plant response rating, Waterhemp (Waterhemp): 100

CCOc1nn(-c2ccc(C(F)(F)F)cc2)nc1Cc1ccnc(C(F)(F)F)c1 [Compound 164, 4-[[5-ethoxy-2-[4-(trifluoromethyl)phenyl]-2H-1,2,3-triazol-4-yl]methyl]-2-(trifluoromethyl)pyridine]
Plant response rating, Barnyardgrass (Barnyardgrass [4]; [20]): 5 | Plant response rating, Barnyardgrass (Barnyardgrass [4]; [21]): 10 | Plant response rating, Barnyardgrass (Barnyardgrass [4]; 250 g ai/ha, scale 0 to 100): 10 | Plant response rating, Barnyardgrass (Barnyardgrass [5]): 10 | Plant response rating, Oilseed Rape (Oilseed Rape [6]; [20]): 5 | Plant response rating, Oilseed Rape (Oilseed Rape [6]; [21]): 5 | Plant response rating, Oilseed Rape (Oilseed Rape [6]; 250 g ai/ha, scale 0 to 100): 25 | Plant response rating, Oilseed Rape (Oilseed Rape [7]): 20 | Plant response rating, Barnyardgrass [1]: 70 | Plant response rating, Barnyardgrass (Barnyardgrass [2]; [22]): 5 | Plant response rating, Barnyardgrass (Barnyardgrass [2]; [18]): 15 | Plant response rating, Barnyardgrass (Barnyardgrass [2]; [19]): 25 | Plant response rating, Oilseed Rape (Oilseed Rape [3]; 62 g ai/ha): 5

CCOc1nn(-c2ccc(F)cc2)nc1Cc1ccnc(C(F)(F)F)c1 [Compound 196, 4-[[5-ethoxy-2-(4-fluorophenyl)-2H-1,2,3-triazol-4-yl]methyl]-2-(trifluoromethyl)pyridine]
Plant response rating, Bromegrass, Downy [8, 23]: 50 | Plant response rating, Bromegrass, Downy [8, 24]: 50 | Plant response rating, Bromegrass, Downy [8, 25]: 70 | Plant response rating, Bromegrass, Downy [8, 26]: 80 | Plant response rating, Bromegrass, Downy [8, 27]: 60 | Plant response rating, Bromegrass, Downy [8, 28]: 95 | Plant response rating, Bromegrass, Downy [8, 29]: 100 | Plant response rating, Bromegrass, Downy [8, 30]: 100 | Plant response rating, Foxtail, Green [9, 23]: 100 | Plant response rating, Foxtail, Green [9, 24]: 100 | Plant response rating, Foxtail, Green [9, 25]: 100 | Plant response rating, Foxtail, Green [9, 31]: 100 | Plant response rating, Foxtail, Green [9, 27]: 90 | Plant response rating, Foxtail, Green [9, 28]: 90 | Plant response rating, Foxtail, Green [9, 29]: 90 | Plant response rating, Foxtail, Green [9, 30]: 90 | Plant response rating, Bermudagrass [10, 23]: 80 | Plant response rating, Bermudagrass [10, 24]: 80 | Plant response rating, Bermudagrass [10, 25]: 85 | Plant response rating, Bermudagrass [10, 26]: 90 | Plant response rating, Bermudagrass [10, 27]: 98 | Plant response rating, Bermudagrass [10, 28]: 98 | Plant response rating, Bermudagrass [10, 29]: 100 | Plant response rating, Bermudagrass [10, 30]: 100 | Plant response rating, Surinam Grass [11, 23]: 35 | Plant response rating, Surinam Grass [11, 24]: 70 | Plant response rating, Surinam Grass [11, 25]: 70 | Plant response rating, Surinam Grass [11, 31]: 75 | Plant response rating, Surinam Grass [11, 27]: 90 | Plant response rating, Surinam Grass [11, 28]: 98 | Plant response rating, Surinam Grass [11, 29]: 100 | Plant response rating, Surinam Grass [11, 30]: 100 | Plant response rating, Cocklebur [12, 23]: 55 | Plant response rating, Cocklebur [12, 24]: 60 | Plant response rating, Cocklebur [12, 25]: 65 | Plant response rating, Cocklebur [12, 26]: 75 | Plant response rating, Cocklebur [12, 27]: 5 | Plant response rating, Cocklebur [12, 29]: 45 | Plant response rating, Cocklebur [12, 30]: 75 | Plant response rating, Cupgrass, Woolly [13, 23]: 30 | Plant response rating, Cupgrass, Woolly [13, 24]: 80 | Plant response rating, Cupgrass, Woolly [13, 25]: 85 | Plant response rating, Cupgrass, Woolly [13, 26]: 90 | Plant response rating, Cupgrass, Woolly [13, 27]: 90 | Plant response rating, Cupgrass, Woolly [13, 28]: 98 | Plant response rating, Cupgrass, Woolly [13, 29]: 100 | Plant response rating, Cupgrass, Woolly [13, 30]: 100 | Plant response rating, Goosegrass [14, 23]: 75 | Plant response rating, Goosegrass [14, 24]: 75 | Plant response rating, Goosegrass [14, 25]: 80 | Plant response rating, Goosegrass [14, 31]: 85 | Plant response rating, Goosegrass [14, 27]: 100 | Plant response rating, Goosegrass [14, 28]: 100 | Plant response rating, Goosegrass [14, 29]: 100 | Plant response rating, Goosegrass [14, 30]: 100 | Plant response rating, Sunflower [15, 22]: 5 | Plant response rating, Sunflower ([15]; 62 g ai/ha, scale 0 to 100, 0 no effect, 100 complete control): 20 | Plant response rating, Sunflower [15, 19]: 30 | Plant response rating, Sunflower ([15]; 250 g ai/ha, scale 0 to 100, 0 no effect, 100 complete control): 40 | Plant response rating, Barley [16, 20]: 30 | Plant response rating, Barley [16, 21]: 40 | Plant response rating, Barley [16, 19]: 45 | Plant response rating, Barley ([16]; 250 g ai/ha, scale 0 to 100): 50 | Plant response rating, Windgrass [17, 20]: 80 | Plant response rating, Windgrass [17, 21]: 80 | Plant response rating, Windgrass [17, 19]: 95 | Plant response rating, Windgrass ([17]; 250 g ai/ha, scale 0 to 100 (0 no effect, 100 complete control)): 95
